Measurements: publication PMC9090415, “Discovery of small molecule inhibitors of Plasmodium falciparum apicoplast DNA polymerase” (Journal of Enzyme Inhibition and Medicinal Chemistry, 2022)

Target: T1, bacteriophage T4 DNA polymerase (Enterobacteria phage T4, UniProt P04415)
T1 construct: made in house
T1 sequence (P04415 1-898): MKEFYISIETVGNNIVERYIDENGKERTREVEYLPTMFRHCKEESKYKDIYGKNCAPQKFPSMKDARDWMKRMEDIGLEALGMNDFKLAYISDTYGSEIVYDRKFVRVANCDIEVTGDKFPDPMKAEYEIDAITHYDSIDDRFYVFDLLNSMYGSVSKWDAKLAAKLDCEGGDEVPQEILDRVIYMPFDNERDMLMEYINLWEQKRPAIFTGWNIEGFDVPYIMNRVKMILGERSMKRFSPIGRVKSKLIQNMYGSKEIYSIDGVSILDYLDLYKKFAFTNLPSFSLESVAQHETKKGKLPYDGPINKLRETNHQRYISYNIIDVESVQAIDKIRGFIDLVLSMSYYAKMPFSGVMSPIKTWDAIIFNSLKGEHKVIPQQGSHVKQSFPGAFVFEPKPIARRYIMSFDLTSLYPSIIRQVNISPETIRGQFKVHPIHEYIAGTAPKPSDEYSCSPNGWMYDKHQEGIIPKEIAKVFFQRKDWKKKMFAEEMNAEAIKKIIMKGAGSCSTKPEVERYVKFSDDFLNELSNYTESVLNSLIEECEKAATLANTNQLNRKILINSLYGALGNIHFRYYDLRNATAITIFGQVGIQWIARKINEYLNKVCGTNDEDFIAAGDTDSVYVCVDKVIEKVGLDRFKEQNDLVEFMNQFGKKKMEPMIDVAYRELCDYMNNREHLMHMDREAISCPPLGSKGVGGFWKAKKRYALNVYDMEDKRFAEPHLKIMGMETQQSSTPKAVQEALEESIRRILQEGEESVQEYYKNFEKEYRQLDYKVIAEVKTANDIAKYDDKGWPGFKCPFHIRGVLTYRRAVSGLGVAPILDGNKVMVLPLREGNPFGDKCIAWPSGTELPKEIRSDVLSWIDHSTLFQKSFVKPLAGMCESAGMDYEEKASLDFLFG
Assay: Counter-screen against bacteriophage T4 DNA polymerase
Type: biochemical
Details: for % inhibition T4 10' 2.5 / % inhibition T4 10' 5 / % inhibition T4 10' 10 / % inhibition T4 10' 20 / % inhibition T4 10' 40 / % inhibition T4 10' 80: read at 10'; for % inhibition T4 70' 2.5 / % inhibition T4 70' 5 / % inhibition T4 70' 10 / % inhibition T4 70' 20 / % inhibition T4 70' 40 / % inhibition T4 70' 80: read at 70'; for % inhibition T4 130' 2.5 / % inhibition T4 130' 5 / % inhibition T4 130' 10 / % inhibition T4 130' 20 / % inhibition T4 130' 40 / % inhibition T4 130' 80: read at 130'; for % inhibition T4 40' 2.5 / % inhibition T4 40' 5 / % inhibition T4 40' 10 / % inhibition T4 40' 20 / % inhibition T4 40' 40 / % inhibition T4 40' 80: read at 40'; for % inhibition T4 90' 2.5 / % inhibition T4 90' 5 / % inhibition T4 90' 10 / % inhibition T4 90' 20 / % inhibition T4 90' 40 / % inhibition T4 90' 80: read at 90'; for % inhibition T4 180' 2.5 / % inhibition T4 180' 5 / % inhibition T4 180' 10 / % inhibition T4 180' 20 / % inhibition T4 180' 40 / % inhibition T4 180' 80: read at 180'
Procedure, shortened: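 IC50 values come from dose-response testing of each compound against T4 DNA polymerase. This B-family polymerase was purified in-house and used as the counter-screen.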

CC(=O)Nc1cc(C(=O)c2cccs2)nn(-c2ccc(Cl)cc2)c1=O [KU0267905]
% inhibition T4 10' 2.5 (DRC-1, concentration 2.5): -2.1822% | % inhibition T4 10' 5 (DRC-1, concentration 5): -1.511% | % inhibition T4 10' 10 (DRC-1, concentration 10): 8.968% | % inhibition T4 10' 20 (DRC-1, concentration 20): 21.6077% | % inhibition T4 10' 40 (DRC-1, concentration 40): 20.7445% | % inhibition T4 10' 80 (DRC-1, concentration 80): 21.8297% | % inhibition T4 70' 2.5 (DRC-1, concentration 2.5): -0.6527% | % inhibition T4 70' 5 (DRC-1, concentration 5): -1.806% | % inhibition T4 70' 10 (DRC-1, concentration 10): 6.193% | % inhibition T4 70' 20 (DRC-1, concentration 20): 12.7493% | % inhibition T4 70' 40 (DRC-1, concentration 40): 13.4043% | % inhibition T4 70' 80 (DRC-1, concentration 80): 12.69% | % inhibition T4 130' 2.5 (DRC-1, concentration 2.5): -1.3658% | % inhibition T4 130' 5 (DRC-1, concentration 5): -4.349% | % inhibition T4 130' 10 (DRC-1, concentration 10): 2.501% | % inhibition T4 130' 20 (DRC-1, concentration 20): 8.205% | % inhibition T4 130' 40 (DRC-1, concentration 40): 8.984% | % inhibition T4 130' 80 (DRC-1, concentration 80): 8.594% | % inhibition T4 10' 2.5 (DRC-2, concentration 2.5): 8% | % inhibition T4 10' 5 (DRC-2, concentration 5): 8.43% | % inhibition T4 10' 10 (DRC-2, concentration 10): 8% | % inhibition T4 10' 20 (DRC-2, concentration 20): 1.18% | % inhibition T4 10' 40 (DRC-2, concentration 40): 7% | % inhibition T4 10' 80 (DRC-2, concentration 80): 2.64% | % inhibition T4 40' 2.5 (DRC-2, concentration 2.5): 7% | % inhibition T4 40' 5 (DRC-2, concentration 5): 7.5% | % inhibition T4 40' 10 (DRC-2, concentration 10): 6.35% | % inhibition T4 40' 20 (DRC-2, concentration 20): 0.171% | % inhibition T4 40' 40 (DRC-2, concentration 40): 4% | % inhibition T4 40' 80 (DRC-2, concentration 80): 0.303% | % inhibition T4 90' 2.5 (DRC-2, concentration 2.5): 5% | % inhibition T4 90' 5 (DRC-2, concentration 5): 5% | % inhibition T4 90' 10 (DRC-2, concentration 10): 4% | % inhibition T4 90' 20 (DRC-2, concentration 20): -2% | % inhibition T4 90' 40 (DRC-2, concentration 40): 2.26% | % inhibition T4 90' 80 (DRC-2, concentration 80): -0.743% | % inhibition T4 180' 2.5 (DRC-2, concentration 2.5): 0.767% | % inhibition T4 180' 5 (DRC-2, concentration 5): 0.673% | % inhibition T4 180' 10 (DRC-2, concentration 10): 0.174% | % inhibition T4 180' 20 (DRC-2, concentration 20): -8% | % inhibition T4 180' 40 (DRC-2, concentration 40): -2.82% | % inhibition T4 180' 80 (DRC-2, concentration 80): -3.56%

O=C1N=C(Nc2cccc(Cl)c2Cl)S/C1=C\c1ccco1 [Molecule 3, O=C1N=C(S/C/1=C\c1ccco1)Nc1cccc(c1Cl)Cl]
% inhibition T4 10' (DRC-2, concentration 2.5): 26% | % inhibition T4 10' (DRC-2, concentration 5): 29% | % inhibition T4 10' (DRC-2, concentration 20): 30% | % inhibition T4 10' (DRC-2, concentration 40): 29% | % inhibition T4 10' (DRC-2, concentration 80): 13% | % inhibition T4 40' (DRC-2, concentration 2.5): 26% | % inhibition T4 40' (DRC-2, concentration 5): 29% | % inhibition T4 40' (DRC-2, concentration 20): 30% | % inhibition T4 40' (DRC-2, concentration 40): 29% | % inhibition T4 40' (DRC-2, concentration 80): 13% | % inhibition T4 90' (DRC-2, concentration 5): 27% | % inhibition T4 90' (DRC-2, concentration 20): 30% | % inhibition T4 90' (DRC-2, concentration 40): 30% | % inhibition T4 180' (DRC-2, concentration 10): 29% | % inhibition T4 180' (DRC-2, concentration 20): 27% | % inhibition T4 180' (DRC-2, concentration 40): 30%

COc1ccc(/C=C/c2cc(C(=O)O)c3ccccc3n2)cc1 [Molecule 5, COc1ccc(cc1)/C=C/c1nc2ccccc2c(c1)C(=O)O]
% inhibition T4 10' 2.5 (DRC-1, concentration 2.5): 1.081% | % inhibition T4 10' 5 (DRC-1, concentration 5): 5.185% | % inhibition T4 10' 10 (DRC-1, concentration 10): 0.5818% | % inhibition T4 10' 20 (DRC-1, concentration 20): -3.901% | % inhibition T4 10' 40 (DRC-1, concentration 40): -6.063% | % inhibition T4 10' 80 (DRC-1, concentration 80): 5.54% | % inhibition T4 70' 2.5 (DRC-1, concentration 2.5): -11.7738% | % inhibition T4 70' 5 (DRC-1, concentration 5): -0.8035% | % inhibition T4 70' 10 (DRC-1, concentration 10): 5.827% | % inhibition T4 70' 20 (DRC-1, concentration 20): 2.436% | % inhibition T4 70' 40 (DRC-1, concentration 40): 2.364% | % inhibition T4 70' 80 (DRC-1, concentration 80): 3.646% | % inhibition T4 130' 2.5 (DRC-1, concentration 2.5): -10.2066% | % inhibition T4 130' 5 (DRC-1, concentration 5): -1.2832% | % inhibition T4 130' 10 (DRC-1, concentration 10): 4.495% | % inhibition T4 130' 20 (DRC-1, concentration 20): 3.3008% | % inhibition T4 130' 40 (DRC-1, concentration 40): 3.939% | % inhibition T4 130' 80 (DRC-1, concentration 80): 6.199% | % inhibition T4 10' 2.5 (DRC-2, concentration 2.5): 4.49% | % inhibition T4 10' 5 (DRC-2, concentration 5): 7% | % inhibition T4 10' 10 (DRC-2, concentration 10): 18% | % inhibition T4 10' 20 (DRC-2, concentration 20): 21% | % inhibition T4 10' 40 (DRC-2, concentration 40): 24% | % inhibition T4 10' 80 (DRC-2, concentration 80): 17% | % inhibition T4 40' 2.5 (DRC-2, concentration 2.5): 4% | % inhibition T4 40' 5 (DRC-2, concentration 5): 8% | % inhibition T4 40' 10 (DRC-2, concentration 10): 18% | % inhibition T4 40' 20 (DRC-2, concentration 20): 27% | % inhibition T4 40' 40 (DRC-2, concentration 40): 31% | % inhibition T4 40' 80 (DRC-2, concentration 80): 26% | % inhibition T4 90' 2.5 (DRC-2, concentration 2.5): 3% | % inhibition T4 90' 5 (DRC-2, concentration 5): 6.33% | % inhibition T4 90' 10 (DRC-2, concentration 10): 16% | % inhibition T4 90' 20 (DRC-2, concentration 20): 25% | % inhibition T4 90' 40 (DRC-2, concentration 40): 29% | % inhibition T4 90' 80 (DRC-2, concentration 80): 27% | % inhibition T4 180' 2.5 (DRC-2, concentration 2.5): -3.34% | % inhibition T4 180' 5 (DRC-2, concentration 5): 0.194% | % inhibition T4 180' 10 (DRC-2, concentration 10): 10% | % inhibition T4 180' 20 (DRC-2, concentration 20): 18% | % inhibition T4 180' 40 (DRC-2, concentration 40): 25% | % inhibition T4 180' 80 (DRC-2, concentration 80): 24%
